Measurements: the NIST ThermoML archive (doi:10.1021/je4005883)
Numbers after ± are expanded uncertainties.

Legend:
[1] = 298.15 K; 101.33 kPa; Liquid; Vibrating tube method
[2] = wn = mass fraction of the nth substance listed; conditions: 101.33 kPa, Liquid; for speed of sound: Pulse-echo method; for mass density: Vibrating tube method

Structure (SMILES) | speed of sound ([2]; 293.15 K, w2 = 0.7) [m/s] | speed of sound ([2]; 293.15 K, w2 = 0.8) [m/s] | speed of sound ([2]; 293.15 K, w2 = 0.9) [m/s] | mass density ([2]; 293.15 K, w2 = 0.7) [kg/m3] | mass density ([2]; 293.15 K, w2 = 0.8) [kg/m3] | mass density ([2]; 293.15 K, w2 = 0.9) [kg/m3] | viscosity ([2]; 293.15 K, w2 = 0.7) [mPa·s] | viscosity ([2]; 293.15 K, w2 = 0.8) [mPa·s] | viscosity ([2]; 293.15 K, w2 = 0.9) [mPa·s] | speed of sound ([2]; 303.15 K, w2 = 0.7) [m/s] | speed of sound ([2]; 303.15 K, w2 = 0.8) [m/s] | speed of sound ([2]; 303.15 K, w2 = 0.9) [m/s] | mass density ([2]; 303.15 K, w2 = 0.7) [kg/m3] | mass density ([2]; 303.15 K, w2 = 0.8) [kg/m3] | mass density ([2]; 303.15 K, w2 = 0.9) [kg/m3] | viscosity ([2]; 303.15 K, w2 = 0.7) [mPa·s] | viscosity ([2]; 303.15 K, w2 = 0.8) [mPa·s] | viscosity ([2]; 303.15 K, w2 = 0.9) [mPa·s] | speed of sound ([2]; 313.15 K, w2 = 0.7) [m/s] | speed of sound ([2]; 313.15 K, w2 = 0.8) [m/s] | other results
NCCO [2-aminoethan-1-ol] |  |  |  |  |  |  |  |  |  |  |  |  |  |  |  |  |  |  |  |  | mass density [1]: 1011.98 ± 0.46 kg/m3
CCN1CCCC1=O [1-ethyl-2-pyrrolidinone] + O | 1671.7 ± 2.6 | 1620 ± 2.6 | 1555.7 ± 2.5 | 1013.82 ± 0.58 | 1007.67 ± 0.57 | 1002.08 ± 0.57 | 2.857 ± 0.065 | 2.068 ± 0.048 | 1.474 ± 0.035 | 1658.9 ± 2.6 | 1620 ± 2.6 | 1568.9 ± 2.5 | 1008.12 ± 0.58 | 1003.22 ± 0.57 | 998.33 ± 0.57 | 2.03 ± 0.05 | 1.52 ± 0.04 | 1.123 ± 0.027 | 1644 ± 2.6 | 1616.3 ± 2.6 | speed of sound ([2]; 313.15 K, w2 = 0.9): 1576.8 ± 2.5 m/s; mass density ([2]; 313.15 K, w2 = 0.7): 1001.9 ± 0.58 kg/m3; mass density ([2]; 313.15 K, w2 = 0.8): 998.11 ± 0.57 kg/m3; mass density ([2]; 313.15 K, w2 = 0.9): 994.6 ± 0.57 kg/m3; viscosity ([2]; 313.15 K, w2 = 0.7): 1.522 ± 0.036 mPa·s; viscosity ([2]; 313.15 K, w2 = 0.8): 1.176 ± 0.029 mPa·s; viscosity ([2]; 313.15 K, w2 = 0.9): 0.891 ± 0.022 mPa·s; speed of sound ([2]; 323.15 K, w2 = 0.7): 1627.1 ± 2.6 m/s; speed of sound ([2]; 323.15 K, w2 = 0.8): 1608.9 ± 2.6 m/s; speed of sound ([2]; 323.15 K, w2 = 0.9): 1580.3 ± 2.5 m/s; mass density ([2]; 323.15 K, w2 = 0.7): 995.12 ± 0.58 kg/m3; mass density ([2]; 323.15 K, w2 = 0.8): 992.41 ± 0.57 kg/m3; mass density ([2]; 323.15 K, w2 = 0.9): 989.74 ± 0.57 kg/m3; viscosity ([2]; 323.15 K, w2 = 0.7): 1.196 ± 0.029 mPa·s; viscosity ([2]; 323.15 K, w2 = 0.8): 0.942 ± 0.024 mPa·s; viscosity ([2]; 323.15 K, w2 = 0.9): 0.73 ± 0.02 mPa·s
CCN1CCCC1=O [1-ethyl-2-pyrrolidinone] + NCCO | 1653.3 ± 2.6 | 1679.7 ± 2.6 | 1706.9 ± 2.7 | 1009.04 ± 0.66 | 1011.7 ± 0.64 | 1014.01 ± 0.63 | 12.25 ± 0.24 | 16.01 ± 0.3 | 19.95 ± 0.36 | 1618.6 ± 2.6 | 1645.9 ± 2.6 | 1674 ± 2.7 | 1000.7 ± 0.66 | 1003.49 ± 0.64 | 1005.95 ± 0.62 | 8.104 ± 0.17 | 10.27 ± 0.2 | 12.48 ± 0.23 | 1584 ± 2.6 | 1611.7 ± 2.6 | speed of sound ([2]; 313.15 K, w2 = 0.9): 1641.2 ± 2.7 m/s; mass density ([2]; 313.15 K, w2 = 0.7): 992.31 ± 0.66 kg/m3; mass density ([2]; 313.15 K, w2 = 0.8): 995.23 ± 0.63 kg/m3; mass density ([2]; 313.15 K, w2 = 0.9): 997.83 ± 0.62 kg/m3; viscosity ([2]; 313.15 K, w2 = 0.7): 5.666 ± 0.12 mPa·s; viscosity ([2]; 313.15 K, w2 = 0.8): 6.967 ± 0.14 mPa·s; viscosity ([2]; 313.15 K, w2 = 0.9): 8.35 ± 0.17 mPa·s; speed of sound ([2]; 323.15 K, w2 = 0.7): 1549.5 ± 2.6 m/s; speed of sound ([2]; 323.15 K, w2 = 0.8): 1578.2 ± 2.6 m/s; speed of sound ([2]; 323.15 K, w2 = 0.9): 1608 ± 2.7 m/s; mass density ([2]; 323.15 K, w2 = 0.7): 983.87 ± 0.65 kg/m3; mass density ([2]; 323.15 K, w2 = 0.8): 986.93 ± 0.63 kg/m3; mass density ([2]; 323.15 K, w2 = 0.9): 989.65 ± 0.61 kg/m3; viscosity ([2]; 323.15 K, w2 = 0.7): 4.173 ± 0.095 mPa·s; viscosity ([2]; 323.15 K, w2 = 0.8): 5.017 ± 0.11 mPa·s; viscosity ([2]; 323.15 K, w2 = 0.9): 5.863 ± 0.13 mPa·s
